Data as given in US9315535B2, “Nucleoside and nucleotide having nitrogen-containing heterocycle structure” (SHIONOGI & CO., LTD., priority 2013, dated 2016).

Tests used:
[1] = test system: RNA complementary strand (sense strand 3′-CGC AAA AAA CGA-5′); assay: Melting temperature (Tm) of oligonucleotide hybridized to the RNA complementary strand; type: binding
Description: (§1) Nitrogen stream was passed through the cell chamber of the spectrophotometer (SHIMADZU UV-1800) to prevent dew condensation, and the sample solution was gradually cooled to 5° C. and kept at 5° C. for 15 minutes before starting the measurements. The temperature was raised to 90° C. at the rate of 0.5° C./min while ultraviolet absorption spectra were measured at 260 nm at intervals of 0.5° C. Lidded cells were used to prevent concentration change due to rising temperature.
(§2) The method for determining the Tm values was a method similar to (1).
as §2

[2] = test system: DNA complementary strand (sense strand 3′-CGC AAA AAA CGA-5′); assay: Melting temperature (Tm) of oligonucleotide hybridized to the DNA complementary strand; type: binding
Description: as §1, §2, §2

[3] = Table 10, X = II-1 (compound I-1), 100 mM NaCl, 10 mM sodium phosphate buffer (pH 7.2), 4.0 μM each strand
[4] = Table 11, Xp = II-2 (compound IV-1), method similar to (1)
[5] = Table 12, nucleoside structure of compound VII-1 (II-3), method similar to (1)

5′-d(GCG TTT TTT GCT)-3′ (DNA GCGTTTTTTGCT; DNA, backbone not given here) [oligonucleotide (0), nucleoside moieties of the oligonucleotide are unmodified, used as a control, reference compound]
Tm, RNA complementary strand [1, 3]: 49.3 °C | Tm, RNA complementary strand [1, 4]: 49.3 °C | Tm, RNA complementary strand [1, 5]: 49.7 °C | Tm, DNA complementary strand [2, 3]: 53.1 °C | Tm, DNA complementary strand [2, 4]: 53.1 °C | Tm, DNA complementary strand [2, 5]: 54.0 °C
